Experimental data published in EP0726261A1, “Herbidical 1,2,4 thiadiazoles” (American Cyanamid Company, priority 1995, dated 1996).

Legend:
Format in all cases: in vivo
Echinochloa crus-galli [1] = assay: Herbicidal activity, postemergence test (Example 66); parameters: key: A rating of 0 indicates growth as untreated control; a rating of 9 indicates death; details: post; 1000 g/ha; assessed visually twenty days after spraying
Protocol: (§1) To evaluate their herbicidal activity, compounds according to the invention are tested using a representative range of plants: ZEAMX Zea mays ORYSA Oryza sativa GLXMA Glycine max BEAVA Beta vulgaris LIUUT Linum usitatissimum AVEFA Avena fatua ECHCG Echinochloa crus-galli SINAL Sinapsis alba
(§2) The tests fall into two categories, preemergence and postemergence. The preemergence tests involve spraying a liquid formulation of the compound onto the soil in which the seeds of the plant species mentioned above have recently been sown. The postemergence tests involve spraying a liquid formulation of the compound onto seedling plants of the above species.
(§3) The soil used in the tests is a prepared horticultural loam.
(§4) The formulations used in the tests are prepared from solutions of the test compounds in acetone containing 0.4% by weight of an alkylphenol/ethylene oxide condensate available under the trademark TRITON X-155. These acetone solutions are diluted with water and the resulting formulations applied at dosage levels corresponding to 1000 g of active material per hectare in a volume equivalent to 900 litres per hectare.
(§5) In the preemergence tests, untreated sown soil, and in the postemergence tests, untreated soil bearing seedling plants, are used as controls.
(§6) The herbicidal effects of the test compounds are assessed visually twenty days after spraying the foliage and the soil and are recorded on a 0-9 scale. A rating of 0 indicates growth as untreated control, a rating of 9 indicates death. An increase of 1 unit on the linear scale approximates to an 11% increase in the level of effect.

Avena fatua [2] = assay: as above; parameters: key: A rating of 0 indicates growth as untreated control; a rating of 9 indicates death; details: post; 1000 g/ha; assessed visually twenty days after spraying
Protocol: as §1, §2, §3, §4, §5, §6

Zea mays [3] = assay: as above; parameters: key: A rating of 0 indicates growth as untreated control; a rating of 9 indicates death; details: post; 1000 g/ha; assessed visually twenty days after spraying
Protocol: as §1, §2, §3, §4, §5, §6

Linum usitatissimum [4] = assay: as above; parameters: key: A rating of 0 indicates growth as untreated control; a rating of 9 indicates death; details: post; 1000 g/ha; assessed visually twenty days after spraying
Protocol: as §1, §2, §3, §4, §5, §6

Sinapsis alba [5] = assay: as above; parameters: key: A rating of 0 indicates growth as untreated control; a rating of 9 indicates death; details: post; 1000 g/ha; assessed visually twenty days after spraying
Protocol: as §1, §2, §3, §4, §5, §6

Oryza sativa [6] = assay: as above; parameters: key: A rating of 0 indicates growth as untreated control; a rating of 9 indicates death; details: post; 1000 g/ha; assessed visually twenty days after spraying
Protocol: as §1, §2, §3, §4, §5, §6

Beta vulgaris [7] = assay: as above; parameters: key: A rating of 0 indicates growth as untreated control; a rating of 9 indicates death; details: post; 1000 g/ha; assessed visually twenty days after spraying
Protocol: as §1, §2, §3, §4, §5, §6

Echinochloa crus-galli [8] = assay: Herbicidal activity, preemergence test (Example 66); parameters: key: A rating of 0 indicates growth as untreated control; a rating of 9 indicates death; details: pre; 1000 g/ha; assessed visually twenty days after spraying
Protocol: as §1, §2, §3, §4, §5, §6

Glycine max [9] = assay: as above; parameters: key: A rating of 0 indicates growth as untreated control; a rating of 9 indicates death; details: pre; 1000 g/ha; assessed visually twenty days after spraying
Protocol: as §1, §2, §3, §4, §5, §6

Avena fatua [10] = assay: as above; parameters: key: A rating of 0 indicates growth as untreated control; a rating of 9 indicates death; details: pre; 1000 g/ha; assessed visually twenty days after spraying
Protocol: as §1, §2, §3, §4, §5, §6

Zea mays [11] = assay: as above; parameters: key: A rating of 0 indicates growth as untreated control; a rating of 9 indicates death; details: pre; 1000 g/ha; assessed visually twenty days after spraying
Protocol: as §1, §2, §3, §4, §5, §6

Linum usitatissimum [12] = assay: as above; parameters: key: A rating of 0 indicates growth as untreated control; a rating of 9 indicates death; details: pre; 1000 g/ha; assessed visually twenty days after spraying
Protocol: as §1, §2, §3, §4, §5, §6

Sinapsis alba [13] = assay: as above; parameters: key: A rating of 0 indicates growth as untreated control; a rating of 9 indicates death; details: pre; 1000 g/ha; assessed visually twenty days after spraying
Protocol: as §1, §2, §3, §4, §5, §6

Oryza sativa [14] = assay: as above; parameters: key: A rating of 0 indicates growth as untreated control; a rating of 9 indicates death; details: pre; 1000 g/ha; assessed visually twenty days after spraying
Protocol: as §1, §2, §3, §4, §5, §6

Beta vulgaris [15] = assay: as above; parameters: key: A rating of 0 indicates growth as untreated control; a rating of 9 indicates death; details: pre; 1000 g/ha; assessed visually twenty days after spraying
Protocol: as §1, §2, §3, §4, §5, §6

Glycine max [16] = assay: Herbicidal activity, postemergence test (Example 66); details: post; 1000 g/ha; assessed visually twenty days after spraying
Protocol: as §1, §2, §3, §4, §5, §6

| SMILES | herbicidal effects on a 0-9 scale, ECHCG (Echinochloa crus-galli [1]) | herbicidal effects on a 0-9 scale, AVEFA (Avena fatua [2]) | herbicidal effects on a 0-9 scale, ZEAMX (Zea mays [3]) | herbicidal effects on a 0-9 scale, LIUUT (Linum usitatissimum [4]) | herbicidal effects on a 0-9 scale, SINAL (Sinapsis alba [5]) | herbicidal effects on a 0-9 scale, ORYSA (Oryza sativa [6]) | herbicidal effects on a 0-9 scale, BEAVA (Beta vulgaris [7]) | herbicidal effects on a 0-9 scale, ECHCG (Echinochloa crus-galli [8]) | herbicidal effects on a 0-9 scale, GLXMA (Glycine max [9]) | herbicidal effects on a 0-9 scale, AVEFA (Avena fatua [10]) | herbicidal effects on a 0-9 scale, ZEAMX (Zea mays [11]) | herbicidal effects on a 0-9 scale, LIUUT (Linum usitatissimum [12]) | herbicidal effects on a 0-9 scale, SINAL (Sinapsis alba [13]) | herbicidal effects on a 0-9 scale, ORYSA (Oryza sativa [14]) | herbicidal effects on a 0-9 scale, BEAVA (Beta vulgaris [15]) | herbicidal effects on a 0-9 scale, GLXMA (Glycine max [16]) |
| --- | --- | --- | --- | --- | --- | --- | --- | --- | --- | --- | --- | --- | --- | --- | --- | --- |
| CC(C)CNC(=O)c1nc(-c2ccc(F)cc2)ns1 [Example 19] | 0 | 0 | 0 | 2 | 8 | 0 | 8 | 0 | 0 | 0 | 0 | 0 | 0 | 0 | 0 | 6 |
| CC(NC(=O)c1nsc(-c2ccc(Cl)cc2)n1)c1cccs1 (racemic) [Example 23, (R/S)-5-(4-Chlorophenyl)-[1,2,4]thiadiazole-3-carboxylic acid, [1-(2-thienyl)ethyl]amide] | 8 | 4 | 0 | 7 | 9 | 0 | 9 | 0 | 0 | 0 | 0 | 0 | 0 | 0 | 0 | 7 |
| C=CCNC(=O)c1nc(-c2ccc(F)cc2)ns1 [Example 18] | 0 | 2 | 0 | 5 | 9 | 0 | 8 | 0 | 0 | 0 | 0 | 0 | 0 | 0 | 0 | 6 |
| CC(C)c1nsc(C(=O)NC(C)c2cccs2)n1 (racemic) [Example 1, (R/S)-3-Isopropyl-[1,2,4]thiadiazole-5-carboxylic acid, [1-(2-thienyl)ethyl]amide] | 9 | 5 | 0 | 9 | 9 | 0 | 9 | 5 | 0 | 2 | 0 | 2 | 7 | 0 | 7 | 6 |
| CC(C)(C)c1nsc(C(=O)NCc2cccs2)n1 [Example 7] | 0 | 0 | 0 | 4 | 8 | 0 | 8 | 0 | 0 | 0 | 0 | 0 | 0 | 0 | 0 | 3 |
| C[C@H](NC(=O)c1nc(-c2ccccc2)ns1)c1ccccc1 [Example 5] | 8 | 6 | 2 | 7 | 9 | 0 | 5 | 0 | 0 | 0 | 0 | 0 | 0 | 0 | 4 | 4 |
| C[C@H](NC(=O)c1nc(C(C)(C)C)ns1)c1ccccc1 [Example 8, (S)-3-tert-Butyl-[1,2,4]thiadiazole-5-carboxylic acid, 1-(phenylethyl)amide] | 8 | 6 | 0 | 9 | 9 | 0 | 9 | 0 | 0 | 0 | 0 | 0 | 8 | 0 | 8 | 6 |
